Results: the NIST ThermoML archive (doi:10.1021/je400919u)

Settings: Liquid, Closed cell (Static) method

O=C=O [carbon dioxide]
Settings | vapor or sublimation pressure [kPa]
273 K | 3387
283 K | 4406
293 K | 5627
298.1 K | 6323

FC(F)(F)C1(F)OC1(F)F (stereo unspecified) [2,2,3-trifluoro-3-(trifluoromethyl)oxirane]
Settings | vapor or sublimation pressure [kPa]
273 K | 309
278 K | 366
283 K | 431
288 K | 505
293 K | 588

FC(F)Cl [chlorodifluoromethane]
Settings | vapor or sublimation pressure [kPa]
273 K | 495
275 K | 528
277 K | 562
279 K | 599
281 K | 637
283 K | 677
285.1 K | 718
286.9 K | 761
289 K | 807
291.1 K | 855
295.1 K | 955

FCC(F)(F)F [1,1,1,2-tetrafluoroethane]
Settings | vapor or sublimation pressure [kPa]
258.2 K | 162
262.2 K | 193
272.2 K | 286
282.6 K | 411
292.9 K | 569
302.7 K | 763
